# Results published in patent publication US9556492B2, “Corn plant MON88017 and compositions and methods for detection thereof” (Monsanto Technology LLC, priority 2003, dated 2017).
# Tested on: corn rootworm larvae
# Assay: corn rootworm feeding damage field screen, root damage rated on the Node-Injury Scale
# Type: in vivo, Diabrotica spp.
# Conditions: Node-Injury Scale 0-3; insecticide treated non-insecticidal protein containing corn plants; 5 ounces per 1000 feet of row; artificially infested plots
# Experimental: Transgenic corn plants were assayed for corn rootworm resistance to feeding damage by greenhouse and field screens. Root damage was rated using the Node-Injury Scale (NIS) developed by Oleson and Tollefson of Iowa State University, this scale rates damage done to corn roots using 0-3 values. The 0.00 value describes no feeding damage and is the lowest rating, 1.00 describes one node or the equivalent of an entire node eaten back to within approximately two inches of the stalk, 2.00 describes two complete nodes eaten, and 3.00 describes three or more nodes eaten and is the highest rating. Damage in between complete nodes eaten is noted as the percentage of the node missing, i.e., 1.50 describes 1½ nodes eaten, 0.25 describes ¼ of one node eaten. Field plots were artificially infested with corn rootworm larvae by applying 1500-2000 eggs per linear foot of row at the V3-V4 growth stage. Insecticide treated rows were treated with Tefluthrin insecticide (Force® 3G, Zeneca Ag Products) at a rate of 5 ounces per 1000 feet of row.
smiles,measurement,value
Cc1c(F)c(F)c(COC(=O)[C@@H]2[C@H](/C=C(\Cl)C(F)(F)F)C2(C)C)c(F)c1F (racemic) [Tefluthrin],average RDR,0.44
